The source made the active and inactive calls. No rule for the calls is given here.

For 19 compounds, inhibition results are on record in PubChem BioAssay AID588807 (The Scripps Research Institute Molecular Screening Center, 2011).

Common to all, as to assay: competitive ABPP of Abhd10 versus anti-targets – biochemical, fluorescence, gel-based, mouse proteome, selectivity assay for PME-1 inhibitor project, late-stage follow-up (AID 588807)
The subject of one assay is Kiaa1363. As to conditions: anti-target, at 10 µM, stronger effect = higher value.
The test system of a further assay is Magl. As to conditions: anti-target, at 10 µM, stronger effect = higher value.
In assay [1] the target is Monoacylglycerol lipase ABHD6 (Mus musculus) (UniProt Q8R2Y0). As to conditions: anti-target, stronger effect = higher value.
Chain of Monoacylglycerol lipase ABHD6 (Mus musculus) (Q8R2Y0 whole entry, looked up): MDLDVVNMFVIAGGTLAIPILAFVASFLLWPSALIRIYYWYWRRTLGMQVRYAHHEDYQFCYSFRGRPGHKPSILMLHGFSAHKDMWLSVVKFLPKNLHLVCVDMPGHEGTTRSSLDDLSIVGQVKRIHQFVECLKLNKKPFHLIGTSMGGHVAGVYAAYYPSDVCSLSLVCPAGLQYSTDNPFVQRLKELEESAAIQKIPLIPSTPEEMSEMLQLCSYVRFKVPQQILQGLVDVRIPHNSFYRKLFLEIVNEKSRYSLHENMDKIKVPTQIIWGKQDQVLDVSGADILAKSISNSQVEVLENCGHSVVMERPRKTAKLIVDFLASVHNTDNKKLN
The target in assay [2] is Prolyl endopeptidase (Mus musculus) (UniProt Q9QUR6). As to conditions: PREP, anti-target, stronger effect = higher value.
Chain of Prolyl endopeptidase (Mus musculus) (Q9QUR6 whole entry, looked up): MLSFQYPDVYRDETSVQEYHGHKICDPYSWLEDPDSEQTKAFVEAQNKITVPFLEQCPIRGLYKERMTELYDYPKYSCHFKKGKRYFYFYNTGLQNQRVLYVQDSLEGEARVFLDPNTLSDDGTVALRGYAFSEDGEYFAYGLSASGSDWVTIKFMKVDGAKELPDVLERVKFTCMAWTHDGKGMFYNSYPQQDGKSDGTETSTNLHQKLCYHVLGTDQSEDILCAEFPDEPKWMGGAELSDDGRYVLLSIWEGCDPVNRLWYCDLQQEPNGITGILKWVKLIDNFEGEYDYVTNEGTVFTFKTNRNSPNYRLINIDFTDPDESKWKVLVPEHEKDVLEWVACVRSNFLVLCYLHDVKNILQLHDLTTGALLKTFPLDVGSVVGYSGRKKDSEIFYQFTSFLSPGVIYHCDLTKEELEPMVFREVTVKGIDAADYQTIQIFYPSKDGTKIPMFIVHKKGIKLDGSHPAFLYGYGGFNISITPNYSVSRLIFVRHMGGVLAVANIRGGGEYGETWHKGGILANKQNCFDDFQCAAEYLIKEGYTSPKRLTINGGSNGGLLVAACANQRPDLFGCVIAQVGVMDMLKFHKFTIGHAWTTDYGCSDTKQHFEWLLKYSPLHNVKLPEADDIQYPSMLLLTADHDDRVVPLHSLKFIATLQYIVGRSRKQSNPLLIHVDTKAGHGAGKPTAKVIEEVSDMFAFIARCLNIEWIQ
The target of assay [3] is Palmitoyl-protein thioesterase ABHD10, mitochondrial (Mus musculus) (UniProt Q6PE15). Particulars: stronger effect = higher value.
Chain of Palmitoyl-protein thioesterase ABHD10, mitochondrial (Mus musculus) (Q6PE15 whole entry, looked up): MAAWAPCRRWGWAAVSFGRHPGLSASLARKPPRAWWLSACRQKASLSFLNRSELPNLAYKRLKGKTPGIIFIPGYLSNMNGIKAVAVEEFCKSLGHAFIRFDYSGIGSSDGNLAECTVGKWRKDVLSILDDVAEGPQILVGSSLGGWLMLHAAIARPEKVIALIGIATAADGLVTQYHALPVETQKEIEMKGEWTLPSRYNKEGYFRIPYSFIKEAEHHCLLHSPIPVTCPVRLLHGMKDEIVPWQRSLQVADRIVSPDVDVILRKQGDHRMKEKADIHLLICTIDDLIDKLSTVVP
The next assay relates to APEH. As to conditions: anti-target, stronger effect = higher value.

As a reminder, the inhibition is the drop in the measured response relative to a control, in per cent. As to `Cc1cccc([C@]2(C)C(=O)N(C(=O)OCc3ccccc3)N2C(=O)OCc2ccccc2)c1`, the inhibition is 0% (inactive) in the assay with Kiaa1363; 0% (inactive) with Magl; 0% (inactive) in assay [1] (at 10 µM); 0% (inactive) in assay [2] (at 10 µM); 15% (inactive) in assay [3] (at 10 µM); 0% (inactive) with APEH (at 10 µM).
In the case of `CC[C@@]1(c2ccccc2)C(=O)N(C(=O)OC(C)C)N1C(=O)OC(C)C`, the inhibition was 0% (inactive) in the assay on Kiaa1363; 0% (inactive) with Magl; 65% (inactive) in assay [1] (at 10 µM); 70% (inactive) in assay [2] (at 10 µM); 10% in assay [2] (inhibition, at 1 µM); 100% in assay [3] (at 10 µM). For the same compound, the inhibition in assay [3] (inhibition, at 0.1 µM) is 70%; in assay [3] (inhibition, at 1 µM) it was 90%; with APEH (at 10 µM), 85% (inactive); with APEH (inhibition, at 0.1 µM) it was 10%; with APEH (inhibition, at 1 µM), 10%.
For `C=CCOC(=O)N1N(C(=O)OC)C(=O)[C@@]1(CC)c1cccc(C)c1`, the inhibition in the assay with Kiaa1363 was 25% (inactive); with Magl, 10% (inactive); in assay [1] (at 10 µM) it was 50% (inactive); in assay [2] (at 10 µM), 70% (inactive); in assay [3] (at 10 µM), 90% (inactive); in assay [3] (inhibition, at 0.1 µM), 10%. For the same compound, the inhibition in assay [3] (inhibition, at 1 µM) is 75%; in the assay with APEH (at 10 µM), 75% (inactive).
With `CC[C@@]1(c2ccc(OC)cc2)C(=O)N(C(=O)OC(C)C)N1C(=O)OC(C)C`, the inhibition with Kiaa1363 was 40% (inactive); in the assay on Magl, 10% (inactive); in assay [1] (at 10 µM), 10% (inactive); in assay [2] (at 10 µM), 30% (inactive); in assay [3] (at 10 µM), 100% (inactive); in assay [3] (inhibition, at 1 µM), 95%. Further, the inhibition in the assay on APEH (at 10 µM) is 70% (inactive).
As for `CC[C@]1(c2cccc(C)c2)C(=O)N(C(=O)OC(C)C)N1C(=O)OC(C)C`, the inhibition with Kiaa1363 was 0% (inactive); in the assay on Magl it was 0% (inactive); in assay [1] (at 10 µM), 10% (inactive); in assay [2] (at 10 µM), 0% (inactive); in assay [3] (at 10 µM), 85% (inactive); in assay [3] (inhibition, at 0.1 µM), 30%. For the same compound, the inhibition is 30% in assay [3] (inhibition, at 1 µM) and 0% (inactive) in the assay with APEH (at 10 µM).
On to `CC[C@@]1(c2cccc(F)c2)C(=O)N(C(=O)OC(C)C)N1C(=O)OC(C)C`, for which the inhibition is 15% (inactive) with Kiaa1363; 10% (inactive) in the assay on Magl; 0% (inactive) in assay [1] (at 10 µM); 0% (inactive) in assay [2] (at 10 µM); 90% (inactive) in assay [3] (at 10 µM); 40% in assay [3] (inhibition, at 0.1 µM). For the same compound, the inhibition in assay [3] (inhibition, at 1 µM) is 85%; in the assay with APEH (at 10 µM) it was 100% (inactive); with APEH (inhibition, at 1 µM) it was 20%.
As to `CCOC(=O)N1C(=O)[C@@](CC)(c2ccc(C)cc2)N1C(=O)OCC`, the inhibition in the assay on Kiaa1363 is 25% (inactive); with Magl, 60% (inactive); in assay [1] (at 10 µM), 55% (inactive); in assay [2] (at 10 µM), 65% (inactive); in assay [3] (at 10 µM), 100%; in assay [3] (inhibition, at 0.1 µM) it was 60%. Further, the inhibition was 95% in assay [3] (inhibition, at 1 µM) and 0% (inactive) with APEH (at 10 µM).
With `CC[C@@]1(c2ccc(C)cc2)C(=O)N(C(=O)OC(C)C)N1C(=O)OC(C)C`, the inhibition in the assay on Kiaa1363 is 0% (inactive); in the assay with Magl it was 0% (inactive); in assay [1] (at 10 µM), 50% (inactive); in assay [2] (at 10 µM) it was 75% (inactive); in assay [2] (inhibition, at 1 µM), 30%; in assay [3] (at 10 µM) it was 95%. The inhibition in assay [3] (inhibition, at 0.1 µM) was 90%; in assay [3] (inhibition, at 1 µM) it was 90%; in the assay with APEH (at 10 µM), 15% (inactive).
For the compound `CCCOC(=O)N1C(=O)[C@@](CC)(c2ccc(C)cc2)N1C(=O)OCCC`, the inhibition with Kiaa1363 is 25% (inactive); in the assay on Magl, 80% (inactive); in assay [1] (at 10 µM) it was 85% (inactive); in assay [1] (inhibition, at 0.1 µM) it was 10%; in assay [1] (inhibition, at 1 µM) it was 25%; in assay [2] (at 10 µM), 65% (inactive). For the same compound, the inhibition was 25% in assay [2] (inhibition, at 1 µM); 95% in assay [3] (at 10 µM); 95% in assay [3] (inhibition, at 0.1 µM); 95% in assay [3] (inhibition, at 1 µM); 0% (inactive) in the assay with APEH (at 10 µM).
On to `CC[C@@]1(c2cccc(F)c2)C(=O)N(C(=O)OC)N1C(=O)OC`, for which the inhibition was 0% (inactive) in the assay on Kiaa1363; 25% (inactive) with Magl; 25% (inactive) in assay [1] (at 10 µM); 70% (inactive) in assay [2] (at 10 µM); 15% in assay [2] (inhibition, at 1 µM); 95% in assay [3] (at 10 µM). Besides, the inhibition in assay [3] (inhibition, at 0.1 µM) is 60%; in assay [3] (inhibition, at 1 µM), 95%; with APEH (at 10 µM), 0% (inactive).
Regarding `CC[C@@]1(c2cccc(C)c2)C(=O)N(C(=O)OC(C)C)N1C(=O)OC`, the inhibition with Kiaa1363 is 0% (inactive); with Magl it was 0% (inactive); in assay [1] (at 10 µM) it was 0% (inactive); in assay [2] (at 10 µM), 30% (inactive); in assay [2] (inhibition, at 1 µM), 10%; in assay [3] (at 10 µM), 60% (inactive). Further, the inhibition is 10% in assay [3] (inhibition, at 0.1 µM); 25% in assay [3] (inhibition, at 1 µM); 0% (inactive) in the assay on APEH (at 10 µM).
On to `C=CCOC(=O)N1C(=O)[C@@](CC)(c2cccc(C)c2)N1C(=O)OC`, for which the inhibition in the assay on Kiaa1363 is 35% (inactive); in the assay with Magl, 20% (inactive); in assay [1] (at 10 µM) it was 45% (inactive); in assay [2] (at 10 µM) it was 65% (inactive); in assay [2] (inhibition, at 1 µM) it was 20%; in assay [3] (at 10 µM), 100% (inactive). In addition, the inhibition was 10% in assay [3] (inhibition, at 0.1 µM); 95% in assay [3] (inhibition, at 1 µM); 55% (inactive) in the assay on APEH (at 10 µM).
On to `CC[C@@]1(c2ccc(C)cc2)C(=O)N(C(=O)OC)N1C(=O)OC`, for which the inhibition in the assay on Kiaa1363 was 15% (inactive); in the assay on Magl, 10% (inactive); in assay [1] (at 10 µM) it was 25% (inactive); in assay [2] (at 10 µM), 50% (inactive); in assay [2] (inhibition, at 1 µM), 20%; in assay [3] (at 10 µM) it was 100%. Besides, the inhibition in assay [3] (inhibition, at 0.1 µM) was 55%; in assay [3] (inhibition, at 1 µM), 95%; with APEH (at 10 µM), 20% (inactive).
For `CCOC(=O)N1C(=O)[C@@](CC)(c2ccccc2)N1C(=O)OCC`, the inhibition with Kiaa1363 was 0% (inactive); in the assay with Magl, 0% (inactive); in assay [1] (at 10 µM), 65% (inactive); in assay [1] (inhibition, at 1 µM), 15%; in assay [2] (at 10 µM) it was 90% (inactive); in assay [2] (inhibition, at 1 µM), 20%. In addition, the inhibition is 100% in assay [3] (at 10 µM); 75% in assay [3] (inhibition, at 0.1 µM); 100% in assay [3] (inhibition, at 1 µM); 55% (inactive) with APEH (at 10 µM).
`CC[C@@]1(c2cccc(C)c2)C(=O)N(C(=O)OC)N1C(=O)OC(C)C`: the inhibition in the assay on Kiaa1363 was 0% (inactive); with Magl, 0% (inactive); in assay [1] (at 10 µM) it was 75% (inactive); in assay [2] (at 10 µM) it was 70% (inactive); in assay [2] (inhibition, at 0.1 µM), 20%; in assay [2] (inhibition, at 1 µM) it was 35%. The inhibition in assay [3] (at 10 µM) is 100% (inactive); in assay [3] (inhibition, at 0.1 µM) it was 20%; in assay [3] (inhibition, at 1 µM), 95%; with APEH (at 10 µM), 20% (inactive).
For `CC[C@@]1(c2cccc(C)c2)C(=O)N(C(=O)OCc2ccccc2)N1C(=O)OCc1ccccc1`, the inhibition is 75% (inactive) in the assay on Kiaa1363; 0% (inactive) in the assay on Magl; 35% (inactive) in assay [1] (at 10 µM); 10% in assay [1] (inhibition, at 1 µM); 90% (inactive) in assay [2] (at 10 µM); 95% (inactive) in assay [3] (at 10 µM). Moreover, the inhibition was 20% in assay [3] (inhibition, at 0.1 µM); 65% in assay [3] (inhibition, at 1 µM); 0% (inactive) with APEH (at 10 µM).
In the case of `CC[C@@]1(c2ccc(Cl)c(Cl)c2)C(=O)N(C(=O)OC(C)C)N1C(=O)OC(C)C`, the inhibition in the assay on Kiaa1363 is 0% (inactive); in the assay on Magl, 25% (inactive); in assay [1] (at 10 µM), 50% (inactive); in assay [2] (at 10 µM) it was 80% (inactive); in assay [3] (at 10 µM), 90% (inactive); in assay [3] (inhibition, at 0.1 µM) it was 25%. In addition, the inhibition in assay [3] (inhibition, at 1 µM) was 90%; with APEH (at 10 µM), 50% (inactive).
As to `CC[C@@]1(c2ccc(Cl)cc2)C(=O)N(C(=O)OC)N1C(=O)OC`, the inhibition in the assay with Kiaa1363 was 25% (inactive); in the assay on Magl, 45% (inactive); in assay [1] (at 10 µM), 50% (inactive); in assay [2] (at 10 µM) it was 50% (inactive); in assay [3] (at 10 µM), 100%; in assay [3] (inhibition, at 0.1 µM), 60%. The inhibition in assay [3] (inhibition, at 1 µM) was 100%; in the assay with APEH (at 10 µM), 45% (inactive).
`C=CCOC(=O)N1C(=O)[C@@](CC)(c2ccccc2)N1C(=O)OC`: the inhibition in the assay with Kiaa1363 was 10% (inactive); in the assay on Magl it was 0% (inactive); in assay [1] (at 10 µM), 35% (inactive); in assay [1] (inhibition, at 1 µM) it was 10%; in assay [2] (at 10 µM), 25% (inactive); in assay [3] (at 10 µM), 90% (inactive). In addition, the inhibition in assay [3] (inhibition, at 0.1 µM) is 10%; in assay [3] (inhibition, at 1 µM), 70%; in the assay on APEH (at 10 µM) it was 40% (inactive).
